Measured values from US6930093B2, “Use of ribofuranose derivatives against inflammatory bowel diseases” (Valeant Research & Development, priority 2003, dated 2005).
Several values for one entry are separate records, joined by “and”; a condition that tells them apart may be missing. Equal values may be shown once.

Test system: DNBS induced distal colitis in Wistar rats
Assay: DNBS (2,4 dinitrobenzenesulfonic acid) induced distal colitis in Wistar rats as a model for inflammatory bowel disease
Assay type: in vivo, Wistar derived female rats
Settings: for I: Table 3; for I / Colon weight per 100 g B.W.: ribavirin 100 mg/kg × 7 or sulfasalazine 300 mg/kg × 7 p.o.; for Colon weight per 100 g B.W.: sacrifice 24 hours after final dosing
Procedure: Wistar derived female rats were provided by MDS Pharma Services Taiwan Ltd. and housed in APEC^R cages. All animals were maintained in a controlled temperature (22° C.-24° C.) and humidity (60-80%) environment with 12 hours light dark cycles for at least one week in the laboratory prior to use. Free access to standard lab chow (LabDiet, Rodent Diet, PMI Nutrition International, USA) and tap water was granted. All aspects of the work including housing, experimentation and disposal of animals were performed in general accordance with the International Guiding Principles for Biomedical Research Involving Animals (CIOMSI Publication No. ISBN 9290360194, 1985).
[…] (TCI, Japan), absolute ethanol (Merck, Germany), sodium chloride (Wako, Japan), sulfasalazine (Sigma, USA) and Tween 80 (Wako, Japan).
Groups of 3 Wistar derived female rats weighing 180±20 grams and fasted for 24 hours were used. Distal colitis was induced by intra-colonic instillation of 2,4-ninitrobenzene sulfonic acid (DNBS; 30 mg in 0.5 mL ethanol 30%), which was followed by injection of air (2 mL) through a cannula to ensure that the solution remained in the colon. […] Two control groups were similarly treated with vehicle alone while challenged with either DNBS (vehicle-control) or 0.9% NaCl solution (blank-control). The animals were sacrificed 24 hours after the final dosing of test compound and each colon was removed and weighed. During the experiment, the presence of diarrhea was recorded daily. Furthermore, when the abdominal cavity was opened, adhesions between the colon and other organs were first noted; presence of colonic ulceration was evaluated after removal and weighing of each colon. The colon-to-body weight (BW) ratio was then calculated for each animal according to the formula: Colon [(g)/BW(g)]×100%. The “Net” increase in the ratio of vehicle-control+DNBS group relative to vehicle-control group was used as a base for comparison with test substance treated groups and expressed as percent decrease. A 30% or more (≧30%) reduction in colon-to-body weight ratio, relative to the vehicle-treated control group, is considered significant.

| SMILES | I (group Avg of 3 rats) | I (individual animals (N 1-3)) | Colon weight per 100 g B.W. (individual animals (N 1-3)) | effectiveness in this IBD model (ribavirin 100 mg/kg p.o., 24 and 2 hours before DNBS and then daily for 5 days) | Colon weight per 100 g B.W. (group Avg of 3 rats) |
| --- | --- | --- | --- | --- | --- |
| NC(=O)c1ncn([C@@H]2O[C@H](CO)[C@@H](O)[C@H]2O)n1 [Ribavirin, 1-β-D-ribofuranosyl-1H-1,2,4-triazole-3-carboxamide] | 0.733 | 0.780 and 0.619 and 0.800 | 0.96 and 1.24 | effective |  |
| O=C(O)c1cc(/N=N/c2ccc(S(=O)(=O)Nc3ccccn3)cc2)ccc1O [Sulfasalazine, sulfasalazine] | 0.625 | 0.631 and 0.548 and 0.697 | 1.01 and 0.85 and 1.08 |  | 0.98 |
